# Reference: patent publication US11912693B2, “Compounds for modulating S1P1 activity and methods of using the same” (TREVENA, INC., priority 2017, dated 2024)
# How the values were obtained:
# [1] = molecular target: T1, human sphingosine-1-phosphate receptor 1 (S1P1) (Homo sapiens (Human), UniProt P21453); assay: β-Arrestin2 recruitment assay (PathHunter), S1P1 CHO-K1 cells; type: cell-based; conditions: for Emax: CHO-K1, efficacy (SPAN) normalized to fingolimod, read-out: hS1P1 B-arrestin2 SPAN
# Method in brief: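 Enzyme-fragment complementation read-out: agonist-driven β-arrestin2 binding to ProLink-tagged human S1P1 in stable CHO-K1 cells restores β-galactosidase, measured 1 h at room temperature after a 60 min 37° C. compound incubation. Potency as pEC50, efficacy relative to fingolimod (SPAN).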
# Target sequence in this assay (P21453 whole entry, looked up, the tested form may be a part): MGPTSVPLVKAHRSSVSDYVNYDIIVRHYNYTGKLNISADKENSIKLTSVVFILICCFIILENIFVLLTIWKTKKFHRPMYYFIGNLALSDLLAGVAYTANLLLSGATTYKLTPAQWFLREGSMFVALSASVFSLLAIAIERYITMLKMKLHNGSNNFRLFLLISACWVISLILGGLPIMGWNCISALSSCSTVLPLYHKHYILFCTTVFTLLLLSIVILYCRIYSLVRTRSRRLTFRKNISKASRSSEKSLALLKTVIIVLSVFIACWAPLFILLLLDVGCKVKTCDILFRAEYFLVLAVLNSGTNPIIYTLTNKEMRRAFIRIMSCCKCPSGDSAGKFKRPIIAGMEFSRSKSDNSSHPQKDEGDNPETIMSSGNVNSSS
# Target sequence in this assay (P32121 whole entry partner, looked up, the tested form may be a part): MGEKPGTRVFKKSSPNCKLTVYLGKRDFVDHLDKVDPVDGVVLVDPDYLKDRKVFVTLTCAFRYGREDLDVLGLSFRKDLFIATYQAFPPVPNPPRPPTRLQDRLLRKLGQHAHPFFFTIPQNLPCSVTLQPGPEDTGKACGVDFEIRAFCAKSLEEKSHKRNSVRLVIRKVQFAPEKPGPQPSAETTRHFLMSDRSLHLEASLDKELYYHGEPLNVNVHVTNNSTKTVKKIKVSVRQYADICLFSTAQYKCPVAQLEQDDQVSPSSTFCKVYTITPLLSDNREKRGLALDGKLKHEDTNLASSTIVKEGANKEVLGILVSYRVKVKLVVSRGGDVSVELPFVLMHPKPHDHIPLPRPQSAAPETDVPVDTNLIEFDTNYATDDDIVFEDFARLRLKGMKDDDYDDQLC
# [2] = molecular target: T1, human sphingosine-1-phosphate receptor 1 (S1P1); assay: Inhibition of cAMP production (HTRF cAMP HiRange), S1P1 CHO-K1 cells; type: cell-based; conditions: for Emax: CHO-K1, efficacy (SPAN) normalized to fingolimod, read-out: hS1P1 cAMP SPAN
# Method in brief: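 CHO-K1 cells stably co-expressing human S1P1 (C-terminal Prolink tag) and EA-β-arrestin2 were grown in AssayComplete Media 6 at 37° C. and 5% CO2, plated, and incubated overnight. Agonist-driven inhibition of intracellular cAMP was read by TR-FRET with the HTRF cAMP HiRange kit on a PheraStar reader. Potency is pEC50, and efficacy (SPAN) is normalized to fingolimod.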
# Target sequence in this assay (P21453 whole entry, looked up, the tested form may be a part): as the sequence (P21453 whole entry, looked up, the tested form may be a part) above
# [3] = β-arrestin2 recruitment, S1P1 CHO-K1 cells
# [4] = inhibition of cAMP production, S1P1 CHO-K1 cells
Emax [1] [%],"hS1P1 B-arrestin2 pEC50 [1, 3]",Emax [2] [%],"hS1P1 cAMP pEC50 [2, 4]","EC50 ([1]; β-arrestin2 recruitment, S1P1 CHO-K1 cells, read-out: hS1P1 B-arrestin2 pEC50 (converted)) [µM]","EC50 ([2]; inhibition of cAMP production, S1P1 CHO-K1 cells, read-out: hS1P1 cAMP pEC50 (converted)) [µM]",Compound
< 75,<5,< 75,<6.5,–,–,"COc1ccc(-c2noc(-c3ccc4c(c3)nnn4C(C)C)n2)cc1OC [Compound 230, 3-(3,4-dimethoxyphenyl)-5-(1-isopropyl-1H-benzo[d][1,2,3]triazol-5-yl)-1,2,4-oxadiazole]"
< 75,<5,< 75,<6.5,–,–,"COc1ccccc1-c1noc(-c2ccc3c(c2)nnn3C2CCOCC2)n1 [Compound 231, 5-[3-(2-methoxyphenyl)-1,2,4-oxadiazol-5-yl]-1-(oxan-4-yl)-1H-1,2,3-benzotriazole]"
< 75,<5,< 75,<6.5,–,–,"Fc1ccc(-c2noc(-c3ccc4c(c3)nnn4C3CCCC3)n2)cc1 [Compound 232, 1-cyclopentyl-5-[3-(4-fluorophenyl)-1,2,4-oxadiazol-5-yl]-1H-1,2,3-benzotriazole]"
< 75,<5,< 75,<6.5,–,–,"Brc1ccccc1-c1noc(-c2ccc3c(c2)nnn3C2CCOCC2)n1 [Compound 233, 5-[3-(2-bromophenyl)-1,2,4-oxadiazol-5-yl]-1-(oxan-4-yl)-1H-1,2,3-benzotriazole]"
–,<5,–,<6.5,–,–,"Cc1ccc(-c2nc(-c3ccc4c(c3)nnn4C3CCCC3)no2)cc1 [Compound 235, 3-(1-cyclopentyl-1H-benzo[d][1,2,3]triazol-5-yl)-5-(p-tolyl)-1,2,4-oxadiazole]"
> 75,<5,< 75,<6.5,–,–,"Cc1ccc(-c2noc(-c3ccc4c(c3)nnn4C(C)C)n2)cn1 [Compound 236, 5-[3-(6-methylpyridin-3-yl)-1,2,4-oxadiazol-5-yl]-1-(propan-2-yl)-1H-1,2,3-benzotriazole]"
< 75,<5,< 75,<6.5,–,–,"CSc1ccc(-c2nc(-c3ccc4c(c3)nnn4C3CCCC3)no2)cc1 [Compound 237, 3-(1-cyclopentyl-1H-benzo[d][1,2,3]triazol-5-yl)-5-(4-(methylthio)phenyl)-1,2,4-oxadiazole]"
< 75,<5,< 75,<6.5,–,–,"OCCn1nnc2cc(-c3noc(-c4ccccc4Br)n3)ccc21 [Compound 238, 2-(5-(5-(2-bromophenyl)-1,2,4-oxadiazol-3-yl)-1H-benzo[d][1,2,3]triazol-1-yl)ethanol]"
< 75,<5,< 75,<6.5,–,–,"Cc1ccsc1-c1noc(-c2ccc3c(c2)nnn3CC2CC2)n1 [Compound 239, 1-(cyclopropylmethyl)-5-[3-(3-methylthiophen-2-yl)-1,2,4-oxadiazol-5-yl]-1H-1,2,3-benzotriazole]"
> 75,<5,> 75,<6.5,–,–,"CC(C)n1nnc2cc(-c3noc(-c4ccccc4OC(F)(F)F)n3)ccc21 [Compound 240, 3-(1-isopropyl-1H-benzo[d][1,2,3]triazol-5-yl)-5-(2-(trifluoromethoxy)phenyl)-1,2,4-oxadiazole]"
> 75,<5,> 75,<6.5,–,–,"CC(C)n1nnc2cc(-c3nc(-c4ccccn4)no3)ccc21 [Compound 241, 1-(propan-2-yl)-5-[3-(pyridin-2-yl)-1,2,4-oxadiazol-5-yl]-1H-1,2,3-benzotriazole]"
< 75,<5,< 75,<6.5,–,–,"CCCn1nnc2cc(-c3nc(-c4cccc(C(F)(F)F)c4)no3)ccc21 [Compound 242, 1-propyl-5-{3-[3-(trifluoromethyl)phenyl]-1,2,4-oxadiazol-5-yl}-1H-1,2,3-benzotriazole]"
> 75,<5,> 75,<6.5,–,–,"Cc1cccc(C)c1-c1noc(-c2ccc3c(c2)nnn3C(C)C)n1 [Compound 243, 3-(2,6-dimethylphenyl)-5-(1-isopropyl-1H-benzo[d][1,2,3]triazol-5-yl)-1,2,4-oxadiazole]"
> 75,>5,> 75,>6.5,–,–,"CC(C)n1nnc2cc(-c3nc(-c4ccncc4)no3)ccc21 [Compound 244, 1-(propan-2-yl)-5-[3-(pyridin-4-yl)-1,2,4-oxadiazol-5-yl]-1H-1,2,3-benzotriazole]"
> 75,>5,> 75,<6.5,–,–,"Cc1ccccc1-c1noc(-c2ccc3c(c2)nnn3C2CCCCC2)n1 [Compound 245, 1-cyclohexyl-5-[3-(2-methylphenyl)-1,2,4-oxadiazol-5-yl]-1H-1,2,3-benzotriazole]"
–,>5,–,>6.5,–,–,"CC(C)Oc1ccc(-c2nc(-c3ccc4c(c3)nnn4C(C)C)no2)cc1C(F)(F)F [Compound 246, 5-(4-isopropoxy-3-(trifluoromethyl)phenyl)-3-(1-isopropyl-1H-benzo[d][1,2,3]triazol-5-yl)-1,2,4-oxadiazole]"
< 75,<5,< 75,<6.5,–,–,"Cc1oc(-c2ccc3c(c2)nnn3C(C)C)nc1-c1ccccc1 [Compound 247, 5-(5-methyl-4-phenyl-1,3-oxazol-2-yl)-1-(propan-2-yl)-1H-1,2,3-benzotriazole]"
–,<5,–,<6.5,–,–,"CC(C)n1nnc2cc(-c3noc(-c4ccc(-c5ccccc5)cc4)n3)ccc21 [Compound 248, 5-([1,1′-biphenyl]-4-yl)-3-(1-isopropyl-1H-benzo[d][1,2,3]triazol-5-yl)-1,2,4-oxadiazole]"
–,<5,–,<6.5,–,–,"CC(C)n1nnc2cc(-c3nc(-c4cncnc4)no3)ccc21 [Compound 249, 1-(propan-2-yl)-5-[3-(pyrimidin-5-yl)-1,2,4-oxadiazol-5-yl]-1H-1,2,3-benzotriazole]"
< 75,<5,< 75,<6.5,–,–,"COc1ccc(-c2coc(-c3ccc4c(c3)nnn4C(C)C)n2)cc1 [Compound 250, 5-[4-(4-methoxyphenyl)-1,3-oxazol-2-yl]-1-(propan-2-yl)-1H-1,2,3-benzotriazole]"
< 75,<5,< 75,<6.5,–,–,"COc1cccc(OC)c1-c1noc(-c2ccc3c(c2)nnn3C(C)C)n1 [Compound 251, 3-(2,6-dimethoxyphenyl)-5-(1-isopropylbenzotriazol-5-yl)-1,2,4-oxadiazole]"
> 75,–,> 75,–,< 10,< 0.316,"Cc1ccsc1-c1noc(-c2ccc3c(c2)nnn3C(C)(C)C)n1 [Compound 253, 1-tert-butyl-5-[3-(3-methylthiophen-2-yl)-1,2,4-oxadiazol-5-yl]-1H-1,2,3-benzotriazole]"
< 75,<5,< 75,>6.5,–,–,"CC1(C)CCC2(CC1)CC(=O)c1cc(-c3nc(-c4ccncc4)no3)ccc1O2 [Compound 254, 4′,4′-dimethyl-6-[3-(pyridin-4-yl)-1,2,4-oxadiazol-5-yl]-3,4-dihydrospiro[1-benzopyran-2,1′-cyclohexane]-4-one]"
< 75,<5,< 75,<6.5,–,–,"CC(C)n1nnc2cc(-c3noc(-c4ccc(F)cc4)n3)ccc21 [Compound 255, 5-(4-fluorophenyl)-3-(1-isopropylbenzotriazol-5-yl)-1,2,4-oxadiazole]"
